Measurements as given in patent US9790470B2, “In vitro pancreatic differentiation of pluripotent mammalian cells” (Cambridge Enterprise Limited, priority 2012, dated 2017).

Columns and labels:
[1] = tested on: DE cells generated from hESCs; experiment: Pancreatic differentiation of hESC-derived definitive endoderm cells, QPCR of marker expression (FIG. 2); assay type: cell-based; details: for expression of pancreatic (progenitor) markers: hESC derived DE cells grown 3 days; for expression of gut (CDX2) and liver markers (AFP): hESC derived DE cells
Procedure: QPCR analyses showing the expression of PDX1/HLXB9/HNF6/CDX2/AFP/SOX9/PTF1A in DE cells grown for 3 days in the presence of diverse combination of Retinoic Acid (RA), SB431542 (SB) or Activin 10 ng/ml (Act), FGF10 50 ng/ml (FGF) or SU5402 10 μM (SU), and Noggin 100 ng/ml (Nog) or BMP4 10 ng/ml.
hESCs (H9 from WiCell) and hIPSCs (BBHX8, A1ATD-1, JRO1D) (Rashid S, et al. (2010) J Clin Invest 120: 3127-3136) were grown in defined culture (Brons et al (2007) Nature 448: 191-195). Cells were passaged weekly using collagenase IV and maintained in chemically defined medium (CDM) supplemented with Activin A (10 ng/ml) and FGF2 (12 ng/ml) as described previously ((Brons et al (2007)). Differentiation was carried out as described in FIG. 1. Daily media changes were made during the entire differentiation protocol. After the DE stage (stage 1), cells were cultured in Advanced DMEM (Invitrogen) supplemented with SB-431542 (10 μM; Tocris), FGF10 (50 ng/ml; AutogenBioclear), all-trans retinoic acid (RA, 2 μM; Sigma) and Noggin (50 ng/ml; R&D Systems) for 3 days. For stage 3, the cells were cultured in Advanced DMEM+human FGF10 (50 ng/ml; AutogenBioclear), all-trans retinoic acid (RA, 2 μM; Sigma), KAAD-cyclopamine (0.25 μM; Toronto Research Chemicals) and Noggin (50 ng/ml; R&D Systems) for 3 days. For Stage 4, the cells were cultured in human KGF (FGF7) or FGF10 (50 ng/ml; R&D Systems) for 3 days. For maturation of pancreatic progenitors, cells were grown in Advanced DMEM+1% vol/vol B27 and DAPT ([…]) for 3 days and for 3 additional days in Advanced DMEM+1% vol/vol B27. Alternatively, for Stage 4, the cells were cultured in human KGF (FGF7) or FGF10 (50 ng/ml; R&D Systems) and all-trans retinoic acid (RA, 2 μM; Sigma) for 3 days. Alternatively for maturation of pancreatic progenitors, cells were grown in Advanced DMEM+1% vol/vol B27, all-trans retinoic acid (RA, 2 μM; Sigma) and DAPT ([…]) for 3 days and for 3 additional days in Advanced DMEM+1% vol/vol B27 and all-trans retinoic acid (RA, 2 μM; Sigma).
(§1) Methods for RT-QPCR were described in Touboul T et al. (2010). Hepatology 51: 1754-1765. All data are presented as average of 3 independent biological triplicates and error bars indicate standard deviation.
We recently established a defined culture system to differentiate hESCs and hIPSCs into near homogenous populations of Definitive Endoderm (DE) cells (Teo A K et al. (2011) Genes Dev 25: 238-250). Importantly, this culture system relies on a chemically defined medium (CDM) devoid of animal products, including BSA, serum, complex extra cellular matrix such as Matrigel™, or feeders cells; thereby avoiding the presence of unknown factors which could interfere with experimental outcomes. To further extend this protocol, we screened a broad number of combinations of growth factors and inhibitors of signalling pathways to identify defined culture conditions driving differentiation of DE cells into pancreatic progenitors. […] We then sought to validate and optimise the role of each of these additives.

[2] = tested on: DE cells; experiment: Ventral foregut / hepatic specification of DE cells, Q-PCR of hepatic markers (FIGS. 7, 8); assay type: cell-based, human
Source text: as §1
During the screening of the culture conditions described above, we noted that DE cells grown in the presence of Activin acquired the appearance of foetal hepatocytes with large darkened cytoplasmic space and canaliculi-like structures. […] Alternatively, unknown signaling pathways could activate the same program of differentiation.

Molecule | expression of pancreatic (progenitor) markers ([1]; QPCR, FIG. 2) | expression of gut (CDX2) and liver markers (AFP) ([1]; QPCR, FIG. 2) | expression of ventral foregut / liver bud / hepatic markers ([2]; FIGS. 7 and 8) | also measured
CC1=C(/C=C/C(C)=C/C=C/C(C)=C/C(=O)O)C(C)(C)CCC1 [RA, (2E,4E,6E,8E)-3,7-dimethyl-9-(2,6,6-trimethylcyclohexen-1-yl)nona-2,4,6,8-tetraenoic acid] | necessary for the induction of pancreatic specification | – | – | –
NC(=O)c1ccc(-c2nc(-c3ccc4c(c3)OCO4)c(-c3ccccn3)[nH]2)cc1 [SB431542, 4-(5-Benzol[1,3]dioxol-5-yl-4-pyridin-2-yl-1H-imidazol-2-yl)-benzamide hydrate] | had the opposite effect | – | – | expression of ventral foregut / liver bud / hepatic markers ([2]; FIGS. 7 and 8, hydrate): decreases the expression of hepatic markers; expression of ventral foregut / liver bud / hepatic markers ([2]; FIGS. 7 and 8, listed as SB, hydrate): decreased the expression of HNF4α, SOX17, HEX and TBX3
Cc1c[nH]c(/C=C2\C(=O)Nc3ccccc32)c1CCC(=O)O [SU5402] | did not affect the expression of pancreatic progenitor markers | augmented | decreases the expression of hepatic markers | cell death ([1]; FGF inhibition during pancreatic differentiation): significant cell death; expression of PTF1A ([1]; absence of FGF signalling, QPCR, FIG. 2): strongly reduced
Noggin: BMP inhibitor (BMP antagonist protein) (protein, UniProt Q13253 28-232, looked up) Noggin: QHYLHIRPAPSDNLPLVDLIEHPDPIFDPKEKDLNETLLRSLLGGHYDPGFMATSPPEDRPGGGGGAAGGAEDLAELDQLLRQRPSGAMPSEIKGLEFSEGLAQGKKQRLSKKLRRKLQMWLWSQTFCPVLYAWNDLGSRFWPRYVKVGSCFSKRSCSVPEGMVCKPSKSVHLTVLRWRCQRRGGQRCGWIPIQYPIISECKCSC | – | – | decreases the expression of hepatic markers | HNF4 expression ([2]; FIG. 8): moderate decrease
Activin: dimeric polypeptide which stimulates the Activin/Nodal pathway (protein, UniProt P08476 311-426, looked up, Inhibin beta A chain) Inhibin beta A chain: GLECDGKVNICCKKQFFVSFKDIGWNDWIIAPSGYHANYCEGECPSHIAGTSGSSLSFHSTVINHYRMRGHSPFANLKSCCVPTKLRPMSMLYYDDGQNIIKKDIQNMIVEECGCS | abolished the expression of pancreatic markers | – | expressed genes marking ventral foregut | –
BMP4: Bone Morphogenic Protein 4, NCBI GeneID: 652 (protein, UniProt P12644 293-408, looked up) Bone morphogenetic protein 4: SPKHHSQRARKKNKNCRRHSLYVDFSDVGWNDWIVAPPGYQAFYCHGDCPFPLADHLNSTNHAIVQTLVNSVNSSIPKACCVPTELSAISMLYLDEYDKVVLKNYQEMVVEGCGCR | significant decrease in the expression of pancreatic progenitor markers | inducing gut (CDX2) and liver markers (AFP) | – | –
